Assay results published in patent US8623893B2, “Pyridino-pyridinone derivatives, preparation and therapeutic use thereof” (SANOFI, priority 2009, dated 2014).
pIC50: −log10 of the molar value.

Columns and labels:
[1] = molecular target: T1, fusion protein Tel/PDGF-R beta (PDGF beta receptor) in BaF/3 cells (Homo sapiens, UniProt P09619); assay: Inhibition of proliferation of BaF3 Tel/PDGF cells (tyrosine kinase activity of PDGF-R beta), CellTiter-Glo, 72 h; format: cell-based, murine; conditions: 72 h incubation, cellular ATP, read-out: IC50 (concentration that inhibits 50% of the proliferation of Baf3 tel/PDGF cells)
T1 construct: the transmembrane and intracellular part of the PDGF-R beta receptor; expressed in transfected cells; host or cells: murine haematopoietic cell line BaF/3; the other entry of the earlier key: ETV6 (P41212, Transcription factor ETV6)
Excerpt: (§1) The inhibitory activity with respect to PDGF or Flt-3 receptors is given by the concentration that inhibits 50% of the proliferation activity of cells Baf3 tel/PDGF or MV4-11, respectively.
Measurement of Inhibition of the Tyrosine Kinase Activity of the Receptor to PDGF Beta (PDGF-Rβ) (Baf-3 tel/PDGFRβ):
This test consists of evaluating the effects of the compounds on the tyrosine kinase activity of the PDGF beta receptor.
The inhibitory effect of the compounds according to the invention on the tyrosine kinase activity of the PDGF-R receptor was evaluated on the murine haematopoietic cell line BaF/3 transfected with a plasmid coding for the fusion protein Tel/PDGF-R beta. This fusion protein is found in chronic myeloid myelomonocytic leukaemias (CMML). It comprises the N-terminal part of the transcription factor Tel and the transmembrane and intracellular part of the PDGF-R beta receptor. This fusion protein is present in dimerized form (presence of an oligomerization domain in the N-terminal part of Tel) and accordingly leads to the constitutive activity of the kinase domain of PDGF-R beta.
(§2) The BaF3 Tel/PDGF cells are washed with phosphate buffer and seeded in 96-well plates, at a density of 5.10^4 cells/ml (100 ml per well), in RPMI 1640 containing 10% of FCS, in the presence or absence of the test compounds. After incubation for 72 h, the viable cells are quantified by measurement of cellular ATP using the CellTiter-Glo® kit (Promega, Cat G7571). The cells are treated according to the instructions given by the supplier of the kit and the luminescence is measured with a Luminoskan (Ascent, Labsystem) with the following parameters: measurement: single; integration time: 1000 ms, lag time: 5 s.
It thus appears that the compounds according to the invention have an inhibitory activity on the tyrosine kinase activity of PDGF-R beta. This activity is given by the concentration that inhibits 50% of the proliferation of Baf3 tel/PDGF cells (IC50).

[2] = molecular target: T2, Flt-3 receptor (constitutively active mutant Flt3ITD, MV4-11 cell line) (Homo sapiens, UniProt P36888, INS600HVDFREYEYD); assay: Inhibition of proliferation of MV4-11 cells (tyrosine kinase activity of Flt-3 receptor), CellTiter-Glo, 72 h; format: cell-based; conditions: 72 h incubation, cellular ATP, read-out: IC50 (concentration that inhibits 50% of the proliferation of the MV4-11 cells)
T2 construct: bearing a constitutively active mutant Flt3ITD; endogenous in cells; host or cells: MV4-11
T2 sequence (P36888 with tags, fused parts or gaps INS600HVDFREYEYD): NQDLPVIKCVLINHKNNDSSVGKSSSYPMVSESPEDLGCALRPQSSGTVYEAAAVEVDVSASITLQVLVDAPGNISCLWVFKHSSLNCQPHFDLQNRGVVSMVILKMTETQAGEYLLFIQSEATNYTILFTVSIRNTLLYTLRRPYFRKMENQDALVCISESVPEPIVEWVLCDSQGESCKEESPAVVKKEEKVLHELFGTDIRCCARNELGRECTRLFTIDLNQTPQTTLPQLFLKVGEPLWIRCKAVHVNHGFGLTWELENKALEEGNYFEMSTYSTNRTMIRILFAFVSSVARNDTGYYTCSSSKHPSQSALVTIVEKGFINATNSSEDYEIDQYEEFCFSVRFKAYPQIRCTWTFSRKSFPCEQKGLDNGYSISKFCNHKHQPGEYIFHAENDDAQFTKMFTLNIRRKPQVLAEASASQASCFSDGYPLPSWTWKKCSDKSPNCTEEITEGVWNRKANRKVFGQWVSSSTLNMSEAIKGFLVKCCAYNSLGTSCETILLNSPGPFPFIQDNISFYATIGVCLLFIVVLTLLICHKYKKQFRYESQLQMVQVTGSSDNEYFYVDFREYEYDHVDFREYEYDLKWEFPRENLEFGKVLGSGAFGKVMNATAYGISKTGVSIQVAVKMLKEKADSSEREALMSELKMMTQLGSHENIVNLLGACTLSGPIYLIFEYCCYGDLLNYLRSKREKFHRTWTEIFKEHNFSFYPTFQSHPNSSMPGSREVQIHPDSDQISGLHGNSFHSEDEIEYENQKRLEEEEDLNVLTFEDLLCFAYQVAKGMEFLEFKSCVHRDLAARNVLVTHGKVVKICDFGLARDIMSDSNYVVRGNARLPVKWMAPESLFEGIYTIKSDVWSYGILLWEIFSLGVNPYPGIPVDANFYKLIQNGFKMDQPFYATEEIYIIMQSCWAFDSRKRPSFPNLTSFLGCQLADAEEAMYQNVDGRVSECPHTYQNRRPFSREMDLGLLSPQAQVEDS
Description: as §1
Measurement of Inhibition of the Tyrosine Kinase Activity of the Flt-3 Receptor
The inhibitory effect of the compounds according to the invention on the tyrosine kinase activity of the Flt-3 receptor was evaluated on the MV4-11 cell line, a line established from a leukaemia of the AML type and bearing a constitutively active mutant Flt3ITD. The inhibitory activity is correlated with inhibition of cell growth, according to the protocols described by SPIEKERMANN, K. et al., Blood, 2003, 101, (4) 1494-1504 and O'FARRELL, A.-M. et al., Blood, 2003, 101, (9) 3597-3605.
as §2, with “The MV4-11” for “The BaF3 Tel/PDGF”, “with PBS” for “with phosphate”, “of 1.10^5” for “of 5.10^4”, “(100 μl” for “(100 ml”, “h,” for “h, the”, “measured using” for “measured with”
The inhibitory activity with respect to the Flt-3 receptor is given by the concentration that inhibits 50% of the proliferation of the MV4-11 cells.

T1 sequence (P09619 with tags, fused parts or gaps): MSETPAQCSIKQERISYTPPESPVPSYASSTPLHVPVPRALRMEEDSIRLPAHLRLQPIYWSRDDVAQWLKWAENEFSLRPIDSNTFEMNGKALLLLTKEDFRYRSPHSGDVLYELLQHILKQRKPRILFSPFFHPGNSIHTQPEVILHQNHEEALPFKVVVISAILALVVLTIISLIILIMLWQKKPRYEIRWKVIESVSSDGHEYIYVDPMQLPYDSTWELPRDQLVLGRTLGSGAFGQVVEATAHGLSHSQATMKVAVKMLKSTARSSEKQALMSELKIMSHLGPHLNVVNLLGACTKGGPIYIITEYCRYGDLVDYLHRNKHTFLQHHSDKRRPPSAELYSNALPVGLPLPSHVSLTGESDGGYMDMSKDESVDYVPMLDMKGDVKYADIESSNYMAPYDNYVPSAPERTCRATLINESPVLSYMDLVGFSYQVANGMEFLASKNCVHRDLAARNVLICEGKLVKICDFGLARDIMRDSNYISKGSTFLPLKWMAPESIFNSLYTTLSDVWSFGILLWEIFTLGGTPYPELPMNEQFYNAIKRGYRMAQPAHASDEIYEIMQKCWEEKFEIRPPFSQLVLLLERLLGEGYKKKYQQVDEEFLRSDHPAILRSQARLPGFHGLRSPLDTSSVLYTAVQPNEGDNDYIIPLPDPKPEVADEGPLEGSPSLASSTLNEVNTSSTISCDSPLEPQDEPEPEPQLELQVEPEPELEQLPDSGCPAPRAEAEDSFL

| pIC50 [1] | pIC50 [2] | SMILES |
| --- | --- | --- |
| 8.70 | 7.28 | CCn1c(N)c(-c2ncc[nH]2)c(=O)c2ccc(-c3ccc(CC(=O)Nc4ncc(C)s4)cc3)nc21 [Compound 8, 2-{4-[7-Amino-8-ethyl-6-(1H-imidazol-2-yl)-5-oxo-5,8-dihydro-[1,8]naphthyridin-2-yl]-phenyl}-N-(5-methyl-thiazol-2-yl)-acetamide] |
| 8.10 | 7.59 | CCn1c(N)c(-c2ncc[nH]2)c(=O)c2ccc(-c3ccc(CC(=O)Nc4nnc(C5CC5)s4)cc3)nc21 [Compound 20, 2-{4-[7-Amino-8-ethyl-6-(1H-imidazol-2-yl)-5-oxo-5,8-dihydro-[1,8]naphthyridin-2-yl]-phenyl}-N-(5-cyclopropyl-[1,3,4]thiadiazol-2-yl)-acetamide] |
| 8.70 | 7.52 | CCn1c(N)c(-c2ncc[nH]2)c(=O)c2ccc(-c3ccc(CC(=O)Nc4onc(C)c4C)cc3)nc21 [Compound 27, 2-{4-[7-Amino-8-ethyl-6-(1H-imidazol-2-yl)-5-oxo-5,8-dihydro-[1,8]naphthyridin-2-yl]-phenyl}-N-(3,4-dimethyl-isoxazol-5-yl)-acetamide] |
|  | 7.16 | CCn1c(N)c(-c2ncc[nH]2)c(=O)c2ccc(-c3ccc(CC(=O)Nc4ncccc4C)cc3)nc21 [Compound 32, 2-{4-[7-Amino-8-ethyl-6-(1H-imidazol-2-yl)-5-oxo-5,8-dihydro-[1,8]naphthyridin-2-yl]-phenyl}-N-(3-methyl-pyridin-2-yl)-acetamide] |
|  | 7.08 | CCn1c(N)c(-c2ncc[nH]2)c(=O)c2ccc(-c3ccc(CC(=O)Nc4cnccc4C)cc3)nc21 [Compound 42, 2-{4-[7-Amino-8-ethyl-6-(1H-imidazol-2-yl)-5-oxo-5,8-dihydro-[1,8]naphthyridin-2-yl]-phenyl}-N-(4-methyl-pyridin-3-yl)-acetamide] |
| 8.85 | 7.72 | CCc1ccnc(NC(=O)Cc2ccc(-c3ccc4c(=O)c(-c5ncc[nH]5)c(N)n(CC)c4n3)cc2)c1 [Compound 43, 2-{4-[7-Amino-8-ethyl-6-(1H-imidazol-2-yl)-5-oxo-5,8-dihydro-[1,8]naphthyridin-2-yl]-phenyl}-N-(4-ethyl-pyridin-2-yl)-acetamide] |
| 8.18 | 6.94 | CCn1c(N)c(-c2nc(C)c[nH]2)c(=O)c2ccc(-c3ccc(CC(=O)NCc4ccncc4)cc3)nc21 [Compound 50, 2-{4-[7-Amino-8-ethyl-6-(4-methyl-1H-imidazol-2-yl)-5-oxo-5,8-dihydro-[1,8]naphthyridin-2-yl]-phenyl}-N-pyridin-4-ylmethyl-acetamide] |
